Results taken from patent publication US6372757B1, “Phenylurea and phenylthio urea derivatives” (SmithKline Beecham p.l.c., priority 1998, dated 2002).
Counter-ions that a name gives are not always drawn. No end group written: not given here.

Assays:
human orexin-1 receptor = molecular target: T1, human orexin-1 receptor (Homo sapiens, UniProt O43613); experiment: Orexin-1 receptor antagonist activity, FLIPR intracellular calcium assay in HEK293 cells against 3.0 nM human orexin-A; assay type: cell-based; conditions: HEK293 cells expressing human orexin-1 receptor; antagonism of 3.0 nM human orexin-A; Kb=IC50/(1+([3/EC50])
T1 construct: expressed in transfected cells; host or cells: HEK293
T1 sequence (O43613 1-425): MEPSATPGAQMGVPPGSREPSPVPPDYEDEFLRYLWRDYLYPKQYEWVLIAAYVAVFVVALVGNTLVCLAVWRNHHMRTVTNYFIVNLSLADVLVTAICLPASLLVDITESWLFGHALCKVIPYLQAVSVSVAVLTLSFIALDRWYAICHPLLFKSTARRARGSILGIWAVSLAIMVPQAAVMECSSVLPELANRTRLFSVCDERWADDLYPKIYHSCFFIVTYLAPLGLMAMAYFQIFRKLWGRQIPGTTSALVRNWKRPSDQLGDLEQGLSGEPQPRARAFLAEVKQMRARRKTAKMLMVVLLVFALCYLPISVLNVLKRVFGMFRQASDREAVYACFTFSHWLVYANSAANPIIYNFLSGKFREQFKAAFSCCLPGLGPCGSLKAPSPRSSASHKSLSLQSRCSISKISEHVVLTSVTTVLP
Protocol: The seeded plates were incubated overnight at 37° C. in 5% CO2.

[1] = central administration, freely-feeding rats, 4 hour time period; cited from earlier work
[2] = Rat sleep/EEG studies, central administration at onset of normal sleep period; assay type: in vivo; conditions: at the expense of paradoxical sleep and slow wave sleep 2
Source text: Therefore, antagonists of orexin receptors may be useful in the treatment of sleep disorders including insomnia.

| Kb (human orexin-1 receptor) | Compound | increase in food intake over control rats receiving vehicle [1] | effect on arousal [2] |
| --- | --- | --- | --- |
| < 100 nM | CSc1ccc(NC(=O)Nc2ccnc3cccnc23)cc1 [Example 2, 1-(4-Methylthiophenyl)-3-[1,5]naphthyridin-4-yl urea hydrochloride] |  |  |
|  | orexin-A: ligand for the orexin-1 receptor; 33-residue peptide, sequence given in the 1st table (QPLPDCCRQKTCSCRLYELLHGAGNHAAGILTL-NH2; not fully specified (residue 1, bridges); ends and bridges not checked; UniProt O43612 34-66, looked up) | approximately four-fold | does-related increase in arousal |
